In patent publication US6372501B1, “Glucose responsive β-cell line” (Aberdeen University, priority 1997, dated 2002):
Entries after “also recorded” stand apart in the source; their conditions may differ. Where two headings read alike, the source gives them in different places.

What was measured:
[1] = system: voltage-gated Ca2+ channels; type: cell-based, human
[2] = system: voltage-gated Ca2+ channels; type: cell-based, human; remark: listed apart in the source
[3] = system: recombinant KATP channels; assay: Patch-clamp recording of recombinant KATP channels in NISK 9 β-cells; type: cell-based, human; settings: for effect of nucleotides on recombinant KATP channels: ADP in the presence of inhibitory concentration of ATP; for effect on K+ channel in inside-out patch: NISK 9 β-cell, same inside-out patch, ATP 500 μM, diazoxide 500 μM in the presence of ATP, tolbutamide 250 μM, efaroxan 200 μM; for effect on recombinant KATP channels: NISK 9 β-cells, cell attached (n=4) and inside-out patch (n=5)
Procedure: In panel A, all data come from the same inside-out patch recording. […] When recorded using symmetrical 140 mM KCl-rich solutions on either side of the cell membrane the channel has an inwardly-retifying relationship, with an estimated inward current conductance of approximately 70 pS. See also claim 11 hereinafter.
Panels A and B were obtained under the same conditions as illustrated in FIG. 9. […] In panel B, tolbutamide is shown to inhibit diazoxide-activated KATP channels in an inside-out patch; note that when this configuration is used, ATP must be added to the inside face of the cell membrane to facilitate diazoxide-induced K^+ channel activation. Mean data from several experiments are also illustrated in panels A and B. See also claim 11 hereinafter.
All data comes from the same membrane recording: an inside-out patch record obtained from a NISK 9 β-cell. […] Closure of KATP channels was also associated with a rise in the cytosolic concentration ([Ca^2+]1), not shown. Thus, the Δ[Ca^2+]1 for tolbutamide was found, on average to be 158+/−24 nM (n=22), and for efaroxan 195+/−40 nM (n=12). See also claim 11 hereinafter.
(§1) All data were obtained from either primary cultured human islet cells (control) or from NES 2Y β-cells(transfected and untransfected) by patch-clamp techniques.
(§2) Standard KCl- and NaCl-rich solutions were used in all electophysiology recordings to provide quasi-physiological cationic gradients. Procedures used for data collection and analysis were described previously.

untransfected cells = settings: 800 μg/ml G418 (data not shown)
NISK 9 β-cells [4] = assay: Insulin release (radioimmunoassay) from NISK 9 β-cells; type: cell-based, human; settings: glucose 0.5-16 mM, KCl 40 mM, tolbutamide 0.2 mM
Procedure: NISK 9 cells (NES 2Y cells stably transfected with IUF1, Sur1 and Kir 6.2) were preincubated for 180 minutes in media containing 0.5 mM glucose. The media was then replaced with that containing the indicated concentrations of glucose, and the media samples assayed for insulin by radioimmunoassay after a further 60 minutes incubation. The data are presentative of two experiments, and show the mean +/− standard deviation of 6 separate determinations. The NISK9 cell line is shown to secrete insulin in response to changes in glucose in the physiological concentration range.
(§3) Insulin was measured by radioimmunoassay using an anti-human insulin antibody (Linco, UK) and ^125I-human insulin, as previously described.

NES 2Y β-cells [5] = assay: Ca2+ microfluorimetry (fura-2) in NES 2Y β-cells; type: cell-based, human; settings: KCl 40 mM, tolbutamide 0.2 mM, glucose 20 mM
Procedure: (§4) Ca^2+ microfluorimetry experiments were performed with fura-2-loaded cells and intact islets as described previously.

NISK 9 β-cells [6] = assay: Ca2+ microfluorimetry (fura-2) in NISK 9 β-cells; type: cell-based, human; settings: for effect on cytosolic Ca2+ ([Ca2+]i): glucose n=8, n=22, KCl 40 mM n=22; for Δ[Ca2+]i, rise in the cytosolic concentration: average, tolbutamide n=22, efaroxan n=12
Procedure: as §4

NES 2Y β-cells [7] = assay: Insulin release (radioimmunoassay) from NES 2Y β-cells; type: cell-based, human; settings: 40 mM KCl, 0.2 mM tolbutamide, glucose
Procedure: as §3

KATP channels [8] = assay: Patch-clamp recording of KATP channels in NES 2Y β-cells; type: cell-based, human; settings: intact cells (diazoxide 0.5 mM) or cell-free patches (cocktail)
KATP channels [9] = biological target: T1, KATP channels (Homo sapiens, UniProt Q09428+Q14654); assay: Patch-clamp recording of KATP channels in control human β-cells; type: cell-based; settings: cell attached configuration, diazoxide 500 μM, tolbutamide 200 μM
T1 construct: primary cultured human islet cells (control); endogenous in cells; host or cells: primary cultured human islet beta-cells
T1 sequence (Q09428 whole entry): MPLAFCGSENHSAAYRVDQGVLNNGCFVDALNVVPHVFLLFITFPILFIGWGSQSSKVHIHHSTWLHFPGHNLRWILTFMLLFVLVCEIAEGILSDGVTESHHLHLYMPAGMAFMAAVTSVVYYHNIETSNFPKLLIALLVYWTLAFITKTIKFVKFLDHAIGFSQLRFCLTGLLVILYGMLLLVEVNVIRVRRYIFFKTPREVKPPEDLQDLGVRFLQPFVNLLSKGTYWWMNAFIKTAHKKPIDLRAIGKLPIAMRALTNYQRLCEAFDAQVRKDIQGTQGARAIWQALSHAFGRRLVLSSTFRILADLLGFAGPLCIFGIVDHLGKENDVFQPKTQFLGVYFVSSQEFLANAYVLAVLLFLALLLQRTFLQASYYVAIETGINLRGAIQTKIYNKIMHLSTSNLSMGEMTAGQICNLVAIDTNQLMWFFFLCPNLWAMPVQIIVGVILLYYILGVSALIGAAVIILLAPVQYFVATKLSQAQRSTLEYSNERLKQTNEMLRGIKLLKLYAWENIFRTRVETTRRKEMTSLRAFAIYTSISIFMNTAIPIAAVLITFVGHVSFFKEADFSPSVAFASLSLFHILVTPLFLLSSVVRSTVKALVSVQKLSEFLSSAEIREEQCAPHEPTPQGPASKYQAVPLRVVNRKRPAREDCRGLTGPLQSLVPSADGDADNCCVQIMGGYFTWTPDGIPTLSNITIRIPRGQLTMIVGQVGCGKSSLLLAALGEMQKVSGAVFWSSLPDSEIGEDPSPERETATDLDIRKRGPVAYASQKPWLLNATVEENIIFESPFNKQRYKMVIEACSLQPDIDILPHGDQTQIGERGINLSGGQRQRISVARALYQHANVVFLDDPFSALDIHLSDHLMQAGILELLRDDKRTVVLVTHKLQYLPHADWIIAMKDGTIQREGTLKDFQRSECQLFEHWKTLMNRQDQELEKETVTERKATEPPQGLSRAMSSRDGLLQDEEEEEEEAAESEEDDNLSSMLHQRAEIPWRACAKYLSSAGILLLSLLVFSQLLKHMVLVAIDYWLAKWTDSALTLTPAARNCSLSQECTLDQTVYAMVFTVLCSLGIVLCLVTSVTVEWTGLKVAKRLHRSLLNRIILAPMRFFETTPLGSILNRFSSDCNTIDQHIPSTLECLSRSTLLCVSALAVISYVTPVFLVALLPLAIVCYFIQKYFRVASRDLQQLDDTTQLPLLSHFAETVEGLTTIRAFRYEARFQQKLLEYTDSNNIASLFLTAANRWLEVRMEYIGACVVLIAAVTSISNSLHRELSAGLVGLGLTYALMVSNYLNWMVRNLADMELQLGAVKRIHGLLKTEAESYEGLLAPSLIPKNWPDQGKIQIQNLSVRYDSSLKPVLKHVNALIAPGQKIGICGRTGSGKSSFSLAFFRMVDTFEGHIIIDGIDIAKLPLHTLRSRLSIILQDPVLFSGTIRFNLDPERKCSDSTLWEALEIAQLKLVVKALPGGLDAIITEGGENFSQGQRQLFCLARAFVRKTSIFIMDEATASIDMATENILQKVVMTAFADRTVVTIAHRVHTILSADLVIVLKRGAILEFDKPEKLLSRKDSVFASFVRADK
T1 sequence (Q14654 whole entry): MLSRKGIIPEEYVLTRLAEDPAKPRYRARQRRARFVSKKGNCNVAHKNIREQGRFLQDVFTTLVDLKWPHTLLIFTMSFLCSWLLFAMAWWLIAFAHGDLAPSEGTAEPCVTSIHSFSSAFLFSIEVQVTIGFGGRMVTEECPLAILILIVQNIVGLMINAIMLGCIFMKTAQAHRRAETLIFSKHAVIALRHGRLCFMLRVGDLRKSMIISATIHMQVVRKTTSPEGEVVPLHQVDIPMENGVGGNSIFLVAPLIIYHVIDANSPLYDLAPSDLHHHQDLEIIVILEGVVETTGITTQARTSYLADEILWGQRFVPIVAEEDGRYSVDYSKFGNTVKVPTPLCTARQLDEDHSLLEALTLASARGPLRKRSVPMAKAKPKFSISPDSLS
Source text: (In the record shown, the maximum number of coincident open ion channel events is increased from 3 to 30). Under the same experimental conditions none of these agents had any action on ion channel events in the NES 2Y β-cells. Similar data were obtained in 4 (panel A) and 18 (panel B) other control experiments, and in a total of N=10 (panel A) and n=10 (panel B) NES 2Y β-cells experiments. Note that upward deflections represent outward current events, and that the broken lines indicate the zero current level which corresponds to closure of all K^+ channels. The same ionic gradients were used for each of the experimental protocols described, and all data are plotted to the same scales in each panel.
as §1, §2

[10] = system: voltage-gated Na+ channels; type: cell-based, human
[11] = system: voltage-gated Na+ channels; type: cell-based, human; remark: listed apart in the source

`COC(=O)C1=C(C)NC(C)=C([N+](=O)[O-])C1c1ccccc1C(F)(F)F` (racemic) [(+/−) BAY K-8644] was tested. Which “effect on Ttx-insensitive currents” value [1] did it give?
Its value is “activation”.

And the “effect on Ttx-insensitive currents” value [2]?
The value was “activation”.

With `Nc1ncnc2c1ncn2[C@@H]1O[C@H](COP(=O)(O)OP(=O)(O)O)[C@@H](O)[C@H]1O` [ADP] as the molecule, how does the “effect of nucleotides on recombinant KATP channels” value ([3]; NISK β-cells, inside-out patch) read?
The value was “activated; also recorded: reversible recovery from closure”.

What does the source list for `Nc1ncnc2c1ncn2[C@@H]1O[C@H](COP(=O)(O)OP(=O)(O)OP(=O)(O)O)[C@@H](O)[C@H]1O` [ATP]?
effect on K+ channel in inside-out patch [3]: channel block; IC50 ([3]; NISK β-cells, inside-out patch, ATP 0.005-1 mM, n=4, read-out: 50% inhibition of KATP channels): 5 to 10 µM; effect of nucleotides on recombinant KATP channels ([3]; NISK β-cells, inside-out patch): inhibition of channels

For `CN[C@@H]1[C@@H](O)[C@@H](O[C@@H]2[C@@H](O)[C@H](O[C@H]3O[C@H]([C@@H](C)O)[C@@H](O)[C@H](O)[C@H]3N)[C@@H](N)C[C@H]2N)OC[C@]1(C)O` [G418], which “time to toxic cell death” value (untransfected cells) is on record?
The value was ≤ 12 h.

Which results are given for `[Cl-].[K+]` [KCl]?
insulin secretion (NISK 9 β-cells [4]): regulated insulin secretion; effect on cytosolic Ca2+ ([Ca2+]i) (NES 2Y β-cells [5]): no elevation of [Ca^2+]i; effect on cytosolic Ca2+ ([Ca2+]i) (NISK 9 β-cells [6]): raise [Ca^2+]i; insulin release (NES 2Y β-cells [7]): fail to release insulin

`CC1=NS(=O)(=O)c2cc(Cl)ccc2N1` [diazoxide] was tested. Which “effect on KATP channel activity / ion channel events” value (KATP channels [8]) did it give?
Its value is “no response”.

And the “effect on the glucose-induced rise in [Ca2+]i” value (NISK 9 β-cells [6]; n=5)?
Its value is “inhibited”.

And the “effect on K+ channel in inside-out patch” value [3]?
Its value is “activation”.

And the “effect on recombinant KATP channels” value [3]?
The value was “activated”.

What about the “effect on spontaneously open KATP channels” value (KATP channels [9]) of the same molecule?
The value was “activated”.

Which results are given for `CCC1(C2=NCCN2)Cc2ccccc2O1` (stereo not drawn) [efaroxan]?
Δ[Ca2+]i, rise in the cytosolic concentration (NISK 9 β-cells [6]): 195 ± 40 nM; effect on K+ channel in inside-out patch [3]: channel inhibition; KATP channel activity remaining, % of the immediate control value ([3]; isolated patches, 0.2 mM efaroxan, n=3): 8.5±5.6%

How did the “effect on voltage-gated currents” value [10] turn out when `NC1=N[C@H](O)[C@H]2[C@H]3O[C@]4(O)O[C@@H]([C@@H](O)[C@@]2(N1)[C@@H]4O)[C@]3(O)CO` [tetrodotoxin] was run?
Its value is “inhibition”.

What about the “effect on voltage-gated currents” value [11] of the same molecule?
Its value is “inhibition”.

How did the insulin secretion (NISK 9 β-cells [4]) turn out when `CCCCNC(=O)NS(=O)(=O)c1ccc(C)cc1` [tolbutamide] was run?
The insulin secretion was “regulated insulin secretion”.

And the “effect on cytosolic Ca2+ ([Ca2+]i)” value (NES 2Y β-cells [5])?
The value was “no elevation of [Ca^2+]i”.

What about the “Δ[Ca2+]i, rise in the cytosolic concentration” value (NISK 9 β-cells [6]) of the same molecule?
Its value is 158 ± 24 nM.

And the “effect on cytosolic Ca2+ ([Ca2+]i)” value (NISK 9 β-cells [6])?
Its value is “raise [Ca^2+]i”.

What about the insulin release (NES 2Y β-cells [7]) of the same molecule?
Its insulin release is “fail to release insulin”.

What about the “effect on K+ channel in inside-out patch” value [3] of the same molecule?
The value was “channel inhibition”.

What about the “effect on recombinant KATP channels” value [3] of the same molecule?
The value was “inhibited”.

And the “KATP channel activity remaining, % of the control value” ([3]; isolated patches, 0.25 mM tolbutamide, n=3)?
Its value is 40.8±8.5%.

And the “effect on spontaneously open KATP channels” value (KATP channels [9])?
Its value is “inhibited”.
